According to US20160138077A1, “MONITORING AND ASSESSING DEACETYLASE ENZYME ACTIVITY” (THE GENERAL HOSPITAL CORPORATION, priority 2013, published 2016):

Tested on: HeLa cells
Assay: Confocal fluorescence imaging of HDAC activity in HeLa cells
Format: cell-based
Settings: 5 μM probe, 2 hours
Description: Imaging HDAC activity in HeLa cells with HP-1 and 2. An acid-washed, poly-lysine-treated sterile glass cover slip was added to each well of 6-well plate, and HeLa cells were plated at a seeding density of ˜2.5×10^5 cells/mL in 2 mL of growth medium. After 24 hours, the cells reached 80-85% confluence. For all experiments, solutions of HP-1 and HP-2 (200 mM each) were prepared in DMSO and diluted in HDAC buffer to a final concentration of 100 μM. SAHA solutions (100 mM) were prepared in DMSO and diluted in HDAC buffer to make a 100 μM solution. All solutions were prepared immediately prior to application to the cells. […]
Confocal fluorescence image acquisition and analysis. Confocal fluorescence imaging was performed with a Zeiss laser scanning microscope 710 with a 63× objective lens and Zen 2009 software (Carl Zeiss). […] The mean fluorescence intensity of 10 cells per coverslip was measured using ImageJ software. […] The mean background signal was also measured and subtracted from the mean fluorescence signal within the cells. Mean fluorescence intensities and standard deviations were plotted in Microsoft Excel.
Imaging HDAC activity in HeLa cells with HP-1 and 2. […] Cover slips were mounted on a drop of Gel Mount (anti-fade with DAPI nuclear stain) and analyzed by confocal imaging.
Confocal fluorescence imaging. […]

Compound: CC(=O)NC=CCCCCNC(=O)CCCCCNc1ccc([N+](=O)[O-])c2nonc12 [HP-1]
- intracellular NBD fluorescence (10 μM SAHA added 15 min prior): reduces the level of fluorescence
- intracellular NBD fluorescence (absence of SAHA): robust intracellular fluorescent signal
